No end group written: not given here.
How the values were obtained:
Assay type in all cases: cell-based
[1] = test system: primary cultured human pituitary cells; test: Pituitary hormone secretion from primary cultures of panned human pituitary cells; design: key to Effect on LH secretion / Effect on PRL secretion / Effect on FSH secretion / Effect on GH secretion: NE: no effect detected; +: stimulatory; −: inhibitory; conditions: for Optimum condition (concentration) for GH secretion / Optimum condition (concentration) for FSH secretion / Optimum condition (concentration) for LH secretion / Optimum condition (concentration) for PRL secretion: Gc medium
Procedure: Fetal human pituitary glands were obtained from Anatomical Gift Foundation (White Oak, Ga.) or Advanced Bioscience Resources, (Alameda, Calif.). Pituitary glands were stored in approximately 20 mls of RPMI culture media at 4° C. and processed within 24 hours of dissection. The gestational age ranged from 19 to 24 weeks. The following dispersion procedure was performed using sterile materials and technique throughout. Tissue was rinsed in 30 mls modified Kreb's Ringer solution, supplemented with 5 g/L bovine serum albumin (BSA) and nonessential amino acids. The tissue was then transferred to a glass microscope slide, and finely minced using scapels. Minced tissue was suspended in 2 to 2.25 mls modified Kreb's Ringer containing 1 mg/ml collagenase (Sigma Chemical Co., St. Louis, Mo.). The mixture was incubated at 37° C. with rotation at 250 rpm for 60 minutes. The dispersed cells were washed in 20 mls DMEM/F12 medium and centrifuged (5 minutes at 428×g). The supernatant was aspirated leaving 2-4 mls, and two additional washes were performed using 10 mls DMEM/F12. Cells were counted using a hemacytometer (Fresney, I R, 1987). The total number of cells ranged from 100,000 to 2 million per gland, with greater cell numbers in older pituitary glands. The mixture was centrifuged (5 minutes at 428×g). The pellet was then resuspended in culture media, as described below, at approximately 10^5 cells/ml and plated into multi-well, styrene tissue culture plates, incubated at 37° C. in humidified air supplemented with 5% CO2.
Primary culture conditions necessary for the proliferation of endocrine cells of the pituitary gland were investigated. The present invention requires cellular proliferation of target cells for integration of foreign DNA into the host cell genome and induction of immortalization. The pituitary gland is composed of numerous cell types including fibroblasts, follicular stellate cells, endocrine epithelial cells (gonadotropes, thyrotropes, somatotropes, lactotropes, melanotropes, corticotropes) and endothelial cells from blood vessels. Since the hormone-producing endocrine cells are one target of the present invention, we investigated methods to enrich the population of endocrine cells. […] Primary cultures were panned by initially plating the dispersed pituicytes in a single 35 mm tissue culture dish at about 5×10^4 cells/ml. After 16-24 hours, less adherent cells were removed from these cultures by repetitive pipetting of media (approximately 10 times). These cells were pelleted by centrifugation (5 minutes at 428×g) and replated at 10^5 cells/ml.
To monitor the viability and/or secretory capability of the hormone-producing endocrine cells, we measured secretion of pituitary hormones from cultures of panned pituitary cells. The level of FSH, LH, prolactin and TSH in culture media was determined using an automated chemiluminescent-based immunoanalyzer, ACS: 180™ (Chiron Diagnostics, Inc., Norwood, Mass.). Growth hormone was determined using an immunoradiometric assay (Nichols Institute, San Juan Capistrano, Calif.). Culture media was harvested on Mondays and Fridays from growing cultures for several weeks. These cultures were maintained in 48-well plates (Falcon/Becton Dickinson, Franklin Lakes, N.J.), with each well containing 1 ml of media. The majority of the media were carefully removed to avoid uptake of cells and transferred to 12×75 mm tubes for analysis. Cells were fed with an equal volume of fresh medium at the same time points. Background levels of GH in various media were insignificant (<0.1 ng/ml). Each condition was tested in duplicate and graphed values are the mean hormone concentration +/− standard deviation.
Similar types of experiments were done to optimize cell culture conditions and components for secretion of GH, FSH, LH, and prolactin from primary cultured human pituitary cells. […]

[2] = test system: immortalized bovine pituitary cells; test: Bovine GH secretion into conditioned media (immunoblot); conditions: 10 μM, 3 hours in media without FBS, passage 2-10
Procedure: Additional experiments were performed using highly sensitive immunological methods to detect bovine growth hormone within live, individual cells in the immortalized cultures. Bovine GH-specific monoclonal antibodies were obtained from Biogenesis, Inc. (Catalog No. 4750-0939) and OEM Concepts (Toms River, N.J.). […] A cellular blotting method was used to monitor bovine GH secretion from pituitary cells grown in culture, as described by Gibson-D'Ambrosio, et al. (1995). By localizing bovine GH within cultures, it was possible to obtain enriched cultures of bovine somatotropes prior to transfection with pSV3neo. […] These cell lines are indicated in Table 2 with the designation bGH, e.g., bGH C5.
To test for secretion of bovine GH from immortalized bovine cell line, cultures of passage 2-10 were grown to confluence in FBS-containing media, washed three times with PBS and incubated for 3 hours in media without FBS. Duplicate wells contained 10 μM bovine growth hormone releasing factor (GHRF).

[3] = test system: primary pituitary cultures; test: G418 selection: killing of non-transfected human pituitary cells
Procedure: Dispersed and panned cells human pituitary cells were plated at 200,000 to 300,000 cells per ml in 6-well plates (Falcon/Becton Dickinson, Franklin Lakes, N.J.) and grown until 30-50% confluent. Transfection was performed using cationic lipids to deliver plasmids containing either the SV40 large T antigen or the v-myc oncogene into primary-cultured pituitary cells. Plasmids without oncogenes were used as controls for transfection. Wells transfected with control plasmid slightly outlived primary cell cultures due to the presence of the gene coding for G418 resistance but died after 2 to 3 weeks or a single passage of the cells. Using Lipfectin®, we transfected panned pituitary cells with either pSV3neo (Southern, P J and Berg, P J, 1982) or pLXSN-v-myc, constructed as described below. The concentration of DNA was kept constant (typically […]) in each well while the amount of cationic lipid increased from 0-20 μl. […] The formation of colonies in the presence of G418 was monitored for a varying number of weeks.
Primary cultured human pituitary cells transfected with pSV3neo were incubated for an additional 48 to 60 hours in Gc medium with 10^−10 M estradiol and nonessential amino acids before G418 selection. […] Medium was replaced every 3 to 4 days and the formation of individual colonies was monitored visually. […]

[4] = primary human pituitary cultures
[5] = initial treatment, in the presence of cortisone and estrogen

## FGF-basic: basic fibroblast growth factor, growth factor addition to the medium
[1]; 0.1 ng/ml, preliminary evidence
  Effect on GH release: potentiates
[1]; [4]
  Effect on FSH secretion: NE
  Effect on LH secretion: NE
  Effect on PRL secretion: NE
  Optimum condition (concentration) for GH secretion: 0.1 ng/mL

## GnRH: gonadotropin releasing hormone, a hypothalamic releasing hormone (QHWSYGLRPG; ends and bridges not checked; UniProt P01148 24-33, looked up)
[1]; [5]
  Effect on FSH secretion: significantly potentiated
  Effect on LH secretion: significantly potentiated
[1]; [4]
  Effect on GH secretion: NE
  Effect on PRL secretion: NE
  Optimum condition (concentration) for FSH secretion: 10^−10 M
  Optimum condition (concentration) for LH secretion: 10^−7 to 10^−10M

## C[C@]12CCC(=O)C=C1CC[C@@H]1[C@@H]2[C@@H](O)C[C@@]2(C)[C@H]1CC[C@]2(O)C(=O)CO [Hydrocortisone]
[1]; [4]
  Effect on LH secretion: NE
  Effect on PRL secretion: NE
  Optimum condition (concentration) for FSH secretion: 5e-08 M
  Optimum condition (concentration) for GH secretion: 50000 pM

## C[C@]12CC[C@@H]3c4ccc(O)cc4CC[C@H]3[C@@H]1CC[C@@H]2O [17β-Estradiol]
[1]; 10^−10 M in medium, previous experiments
  Effect on GH secretion: stimulatory effect
[1]; [4]
  Effect on FSH secretion: NE
  Effect on LH secretion: NE
  Optimum condition (concentration) for GH secretion: 100 pM
  Optimum condition (concentration) for PRL secretion: 100 pM

## GHRF: bovine growth hormone releasing factor (YADAIFTNSYRKVLGQLSARKLLQDIMNRQQGERNQEQGAKVRL; ends and bridges not checked; UniProt P63292 31-74, looked up)
[2]
  Effect on amount of bovine GH secreted: appeared to be potentiated

## CN[C@@H]1[C@@H](O)[C@@H](O[C@@H]2[C@@H](O)[C@H](O[C@H]3O[C@H]([C@@H](C)O)[C@@H](O)[C@H](O)[C@H]3N)[C@@H](N)C[C@H]2N)OC[C@]1(C)O [G418]
[3]; 250 μg/ml, final dose
  Non-transfected cells killed: 100%
[3]; human primary pituitary cultures
  Concentration sufficient to kill all primary pituitary cultures tested: 150 µg/mL

## N[C@@H](Cc1cc(I)c(Oc2ccc(O)c(I)c2)c(I)c1)C(=O)O [T3, 3,5,3′ triiodothyronine]
[1]; 10^−10 M
  Effect on TSH release: strongly inhibitory
  Effect on secretion of GH: beneficial
  Effect on secretion of LH: beneficial
  Effect on secretion of prolactin: beneficial
[1]; [4]
  Effect on FSH secretion: NE
  Optimum condition (concentration) for GH secretion: 100 pM
  Optimum condition (concentration) for LH secretion: 1e-10 M
  Optimum condition (concentration) for PRL secretion: 100 pM

From patent US6458593B1, “Immortalized cell lines and methods of making the same” (Vitro Diagnostics, Inc., priority 1999, dated 2002)
